Laboratory results taken from US20200179302A1, “USE OF DIPHENOL IN PREPARATION OF MEDICINES FOR PREVENTION AND TREATMENT OF CEREBRAL ISCHEMIA” (XI'AN LIBANG PHARMACEUTICAL CO., LTD, priority 2016, published 2020).

Tests used:
[1] = system: permanent cerebral ischemia model rats; experiment: Permanent cerebral ischemia (MCAO, suture method) rat model; details: for Fas average gray scale: gray scale inversely proportional to expression; for Relative cerebral infarction volume(%): 40 mg/kg i.v. 30 min before insertion of thread and 12 h after embolism, TTC
[2] = system: rats with cerebral ischemic reperfusion injury; experiment: Cerebral ischemic reperfusion (MCAO, suture method) rat model; assay type: in vivo; details: for Relative cerebral infarction volume(%): 40 mg/kg i.v. 30 min before and 12 h after reperfusion, TTC
[3] = 40 mg/kg i.v., brain sections, TUNEL

CC1=NN(c2ccccc2)C(=O)C1 [Edaravone injection, edaravone]
Relative cerebral infarct volume (%) ([1]; edaravone 3 mg/kg, 24 h after embolism): 31.29 ± 4.02 % | Fas average gray scale ([1]; edaravone 3 mg/kg, brain sections): 138.95 ± 5.50 | TNF-α content ([1]; edaravone 3 mg/kg, brain tissue homogenate): 5.53 ± 0.54 ng/mL | Relative cerebral infarct volume (%) ([2]; edaravone 3 mg/kg, 24 h after reperfusion): 29.31 ± 3.95 %

CC(=O)Oc1c(C(C)C)cc(-c2cc(C(C)C)c(O)c(C(C)C)c2)cc1C(C)C [Example 2, 4′-hydroxy-3,3′,5,5′-tetraisopropylbiphenyl-4-acetate]
Relative cerebral infarction volume(%) ([1]; 24 h after embolism): 24.71 ± 3.76 % | Number of apoptotic cells [1, 3]: 20.41 ± 5.02 | Fas average gray scale ([1]; 40 mg/kg i.v., brain sections, immunohistochemistry): 158.28 ± 6.66 | Relative cerebral infarction volume(%) ([2]; 24 h after reperfusion): 18.71 ± 4.69 % | Number of apoptotic cells [2, 3]: 19.14 ± 4.24 | Fas average gray scale ([2]; 40 mg/kg i.v., brain sections, immunohistochemistry, gray scale inversely proportional to expression): 162.47 ± 3.96

CC(=O)Oc1c(C(C)C)cc(-c2cc(C(C)C)c(OC(C)=O)c(C(C)C)c2)cc1C(C)C [Example 3, 3,3′,5,5′-tetraisopropylbiphenyl-4′-diacetate]
Relative cerebral infarction volume(%) ([1]; 24 h after embolism): 27.92 ± 4.51 % | Relative cerebral infarction volume(%) ([2]; 24 h after reperfusion): 23.22 ± 3.12 %
